Key:
CKD model = assay: Folic acid CKD model, kidney size after harvesting; type: in vivo; details: folic acid CKD mice; 10 mg/kg, Navi oral, nanoparticles IV
Protocol: This example was an animal study that created a CKD model by injecting 250 mg/kg folic acid intraperitonially (single injection). After 15 days the treatment started. The mice were divided in 5 groups of untreated, healthy, Fausidil, PLGA-Navitoclax, and PLGA-AT2-Navitoclax. FIG. 5: Figure: Image of the kidney after harvesting. The kidney from different treatment groups: A-Healthy control 510, B-Untreated control 520, C-Navi(10 mg/kg oral) 530, D-Fausidil(10 mg/kg IP) 540, E-PLGA-Navi(10 mg/kg IV) 550, F-PLGA-AT2-Navi(10 mg/kg IV) 560. FIGS. 6A-6B: The size of the untreated kidney shrunk by 42.46% (p-value 0.0062) than the healthy control (A). […] The weight of kidney (B) was also measured in gm and the weight 620 of the kidney treated with PLGA-AT2-Navi.

Bcl2 = assay: Western blot analysis from the kidney sample, Bcl2; type: in vivo, mice; details: 10 mg/kg, compared with other groups
Protocol: This example was an animal study that created a CKD model by injecting 250 mg/kg folic acid intraperitonially (single injection). After 15 days the treatment started. The mice were divided in 5 groups of untreated, healthy, Fausidil, PLGA-Navitoclax, and PLGA-AT2-Navitoclax.
FIG. 8: Western blot analysis from the kidney sample. Bcl2 expression was decreased in the sample collected from different group Healthy control, Untreated control, Navi(10 mg/kg oral), Fausidil(10 mg/kg IP), PLGA-Navi(10 mg/kg IV), PLGA-AT2-Navi(10 mg/kg IV) of mice.

[1] = tested on: apoptosis in kidney section; assay: TUNEL assay of kidney section; type: in vivo, mice
Protocol: This example was an animal study that created a CKD model by injecting 250 mg/kg folic acid intraperitonially (single injection). After 15 days the treatment started. The mice were divided in 5 groups of untreated, healthy, Fausidil, PLGA-Navitoclax, and PLGA-AT2-Navitoclax. FIGS. 9A-9R: Immunohistochemistry (IHC) and TUNEL assay of kidney section. IHC for alpha-SMA protein of different treatment group (A-F). The arrow pointed to the dark dot which represented the alpha-SMA protein. […] The dark dot from FIGS. 9G-9L represented the CTGF protein.

CC1(C)CCC(c2ccc(Cl)cc2)=C(CN2CCN(c3ccc(C(=O)NS(=O)(=O)c4ccc(N[C@H](CCN5CCOCC5)CSc5ccccc5)c(S(=O)(=O)C(F)(F)F)c4)cc3)CC2)C1 [Navitoclax]
increase of kidney size after treatment (CKD model): 43.95% | Bcl2 expression (Bcl2): less expression of bcl2 | apoptosis (broken nucleus of DNA) by TUNEL [1]: apoptosis was observed

— patent publication US20230157970A1, “Targeted Therapy of Kidney Fibrosis” (Board of Regents, The University of Texas System, priority 2021, published 2023)
